Tested on: SARS-CoV-2 dimerization loop (DL) RNA
Type: binding
Settings: 2.5 μM peptide; 0.010 M HEPES pH 7.0, 0.30 M NaCl; average of two replicates

| Substance | SPR response relative to parent peptide MG-FSS-m1 |
| --- | --- |
| MGCKQLAKQL(pCaaF)Y (sidechain bridge or staple) [Peptide R4A] | comparable |
| MGCAQLRKQL(pCaaF)Y (sidechain bridge or staple) [Peptide K1A] | comparable |
| MGCKQLRKAL(pCaaF)Y (sidechain bridge or staple) [Peptide Q6A] | substantially higher |
| MGCKQARKQL(pCaaF)Y (sidechain bridge or staple) [Peptide L3A] | substantially lower |
| MGCKQLRAQL(pCaaF)Y (sidechain bridge or staple) [Peptide K5A] | comparable |
| MGCKALRKQL(pCaaF)Y (sidechain bridge or staple) [Peptide Q2A] | substantially lower |
| MGCKQLRKQA(pCaaF)Y (sidechain bridge or staple) [Peptide L7A] | lower |

From publication PMC11575553 (Chemical Science, 2024)
